Measurements taken from US10851084B2, “Piperazine derivatives as TRPML modulators” (CalyGene Biotechnology, Inc., priority 2016, dated 2020).

What was measured:
TFEB = TFEB nuclear translocation assay; format: cell-based; details: HEK293 cells stably expressing GFP-TFEB; dose-dependent, FIG. 2
Procedure: TFEB is a transcription factor and master regulator of lysosome biogenesis and autophagy. TFEB activation is shown to induce cellular clearance in a variety of LSDs and common neurodegenerative diseases.
Intracellular TFEB localization is determined either by immunofluorescence in Hela cells or by fluorescent microscopy in Hela cells stably expressing TFEB-GFP. Detailed procedures are as follows.
Cells grown on cover slips were treated with TRPML1 agonist(s) or antagonist(s) for indicated time period and then fixed with 4% paraformaldehyde for 15 minutes at room temperature. For immunofluorescent detection of endogenous TFEB, cells were permeabilized with 0.3% Triton X-100, blocked with 1% bovine serum albumin (BSA) in phosphate buffered saline (PBS) and then immunostained with anti-TFEB antibody (1:200; Cell Signaling Technology) at 4° C. for overnight. The stained cells were then incubated with secondary antibodies conjugated to Alexa Fluor 568 or 488 (ThermoFisher) for 1 h, then 4′,6-diamidino-2-phenylindole (DAPI) for 15 minutes (to stain the cell nucleus) and mounted on glass slides with Fluoromount-G (Southern Biotech) for observation. […]
Average ratios of nuclear versus cytosolic TFEB fluorescence intensity (>50 randomly-selected cells per experiment) were determined with ImageJ software (NIH).

HaCat cells = assay: UV treatment and ROS staining; format: cell-based, human; details: 600 J/m^2 UV (254 nm), H2DCFDA, FIG. 3
Procedure: HaCat cells (a human keratinocyte cell line) at a confluency of around 50% were incubated with 20 µM H2DCFDA (Sigma) in the culture media without FBS at 37° C. for 30 min, and then washed twice with phosphate buffered saline (PBS, pH 7.4) before being exposed to UV. A CL-1000 UV Crosslinker (UVP) is used to shed 600 J/m^2 of UV light (254 nm) on the HaCat cells in all experiments. Fluorescent images were obtained right after UV exposure, via an Olympus IX73 microscopy (Olympus) and Metamorph software (Molecular Devices).

[1] = test system: six other related channels; details: cited from earlier work
TRPML2 = molecular target: T1, TRPML2 (Homo sapiens, UniProt Q8IZK6); details: cited from earlier work
T1 sequence (Q8IZK6 1-566): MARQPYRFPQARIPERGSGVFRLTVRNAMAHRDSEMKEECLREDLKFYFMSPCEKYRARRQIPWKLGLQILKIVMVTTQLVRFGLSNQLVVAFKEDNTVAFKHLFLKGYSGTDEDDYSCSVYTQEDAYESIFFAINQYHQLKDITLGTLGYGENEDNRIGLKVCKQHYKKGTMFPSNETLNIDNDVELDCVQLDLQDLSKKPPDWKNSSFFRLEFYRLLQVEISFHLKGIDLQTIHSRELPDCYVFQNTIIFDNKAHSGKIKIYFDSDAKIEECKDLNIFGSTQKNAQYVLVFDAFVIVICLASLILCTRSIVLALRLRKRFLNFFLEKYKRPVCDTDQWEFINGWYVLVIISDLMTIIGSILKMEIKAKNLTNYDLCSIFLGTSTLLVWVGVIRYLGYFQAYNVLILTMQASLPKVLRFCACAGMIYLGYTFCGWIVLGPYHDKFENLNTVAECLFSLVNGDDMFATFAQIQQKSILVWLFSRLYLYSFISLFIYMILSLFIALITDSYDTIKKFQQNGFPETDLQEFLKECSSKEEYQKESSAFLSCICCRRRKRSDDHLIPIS

TRPML1 = details: cited from earlier work
TRPML3 = molecular target: T2, TRPML3 (Homo sapiens, UniProt Q8TDD5); details: cited from earlier work
T2 sequence (Q8TDD5 1-553): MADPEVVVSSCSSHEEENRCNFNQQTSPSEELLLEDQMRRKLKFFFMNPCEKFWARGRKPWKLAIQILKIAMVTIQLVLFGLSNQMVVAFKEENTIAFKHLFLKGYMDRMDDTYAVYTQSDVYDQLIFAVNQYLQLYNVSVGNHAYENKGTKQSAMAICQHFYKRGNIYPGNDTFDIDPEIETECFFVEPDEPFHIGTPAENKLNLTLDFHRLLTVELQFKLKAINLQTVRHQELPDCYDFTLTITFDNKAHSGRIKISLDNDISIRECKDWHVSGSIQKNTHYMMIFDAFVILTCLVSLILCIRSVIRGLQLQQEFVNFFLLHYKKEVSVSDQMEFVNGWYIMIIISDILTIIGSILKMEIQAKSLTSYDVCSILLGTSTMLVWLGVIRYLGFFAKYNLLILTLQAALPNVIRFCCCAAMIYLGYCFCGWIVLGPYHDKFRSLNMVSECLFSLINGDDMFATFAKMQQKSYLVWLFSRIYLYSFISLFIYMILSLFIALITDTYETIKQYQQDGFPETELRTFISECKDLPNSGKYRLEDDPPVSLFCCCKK

ML1-4A = details: HEK293 cells stably or transiently expressing ML1-4A; cited from earlier work
TRPMLs = details: cited from earlier work
[2] = molecular target: T3, endogenous whole-endolysosome TRPML-like current (IML-L) (Homo sapiens, UniProt Q9GZU1); details: wild-type (WT; ML1+/+) human fibroblasts; cited from earlier work
T3 construct: host or cells: endogenous in human fibroblasts (WT and ML4); also CHO, Cos-1, HEK293, skeletal muscle, pancreatic β and macrophage cells

[3] = test system: endogenous whole-endolysosome TRPML-like current (IML-L); details: cited from earlier work

T3 sequence (Q9GZU1 whole entry): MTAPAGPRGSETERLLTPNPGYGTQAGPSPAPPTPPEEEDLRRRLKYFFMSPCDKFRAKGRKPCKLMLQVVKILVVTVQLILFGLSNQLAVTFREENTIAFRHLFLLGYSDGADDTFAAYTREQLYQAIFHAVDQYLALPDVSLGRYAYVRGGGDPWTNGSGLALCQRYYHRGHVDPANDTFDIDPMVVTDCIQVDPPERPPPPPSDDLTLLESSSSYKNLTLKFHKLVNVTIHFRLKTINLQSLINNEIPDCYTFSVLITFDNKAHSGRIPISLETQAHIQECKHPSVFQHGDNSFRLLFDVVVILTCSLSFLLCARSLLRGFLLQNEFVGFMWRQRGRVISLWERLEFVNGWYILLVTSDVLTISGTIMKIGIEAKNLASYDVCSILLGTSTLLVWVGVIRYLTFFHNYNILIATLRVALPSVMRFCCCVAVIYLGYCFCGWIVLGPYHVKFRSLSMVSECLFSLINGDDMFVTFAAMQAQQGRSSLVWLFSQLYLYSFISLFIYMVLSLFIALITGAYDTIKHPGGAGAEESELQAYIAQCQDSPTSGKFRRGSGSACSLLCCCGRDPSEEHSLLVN

Row | Compound | TFEB-nuclear translocation (nuclear to cytosol ratio) (TFEB) | UV induced ROS (HaCat cells) | activation of six other related channels [1] | activation of whole-cell ITRPML2 (TRPML2) | activation of whole-endolysosome IML1 compared with PI(3,5)P2 (1 μM) (TRPML1; ML-SA1 10 μM) | activation of whole-cell IML1-4A (TRPML1; whole-cell) | activation of whole-endolysosome IML1 (TRPML1; whole-endolysosome) | activation of whole-cell ITRPML3 (TRPML3) | [Ca2+]cyt increases (ML1-4A) | concentration needed to effectively activate TRPMLs (TRPMLs) | activation of whole-endolysosome IML-L [2] | activation of whole-endolysosome IML-L ([3]; ML4 (ML1−/−) human fibroblasts) | activation of endogenous whole-endolysosome IML-L ([3]; all mammalian cell types investigated (CHO, Cos-1, HEK293, skeletal muscle, pancreatic β, macrophage cells))
1 | CN(C)S(=O)(=O)c1ccc(S(=O)(=O)Nc2ccccc2N2CCN(c3ccc(Cl)cc3F)CC2)cc1 [Example 8, N1-[2-[4-(4-Chloro-2-fluorophenyl)-1-piperazinyl]phenyl]-N4,N4-dimethylbenzene-1,4-disulfonamide] | sufficient to induce TFEB-nuclear translocation | significantly reduced |  |  |  |  |  |  |  |  |  |  | 
2 | CC1CC(C)(C)N(C(=O)CN2C(=O)c3ccccc3C2=O)c2ccccc21 (stereo not shown) [ML-SA1] |  |  | not | activated | comparable | robustly activated | robustly activated | activated | significant | ~10 µM | activated | not | activated
